Entries after “also recorded” stand apart in the source; their conditions may differ.
What was measured:
rodent bone marrow = settings: ref ImmunoMet, 2018; cited from earlier work
[1] = Urine pharmacokinetics of IM156 in patients; format: in vivo, human; settings: for % Dose Recovered / CLr / Total Amount Excreted (Ae): urine
OXPHOS = OXPHOS inhibition in whole blood ex vivo; format: cell-based; settings: at ~ 6 μM IM156
Protocol: The maximum plasma exposure achieved in this study was ~ 6 μM in patients who received IM156 at daily doses of 800 mg. […] As such, measurements of target inhibition were not informative using PBMCs-based assays.

Glioblastoma cells = test system: Glioblastoma cells; design: method as in ImmunoMet, 2018; settings: 15 µM IM156, 500 µM temozolomide, ref ImmunoMet, 2018; cited from earlier work
[2] = Plasma pharmacokinetics of IM156 in patients
Protocol: PK samples were also obtained on Cycle 1 Day 15 immediately prior to dosing and 2 h after dosing.
③ Method and schedule for administration:
IM156 will be administered in a fasted state (at least 2 hours after
and 1 hour before eating and drinking except water) except at
the single dose stage (described below).
In the single dose stage, IM156 will be administered with a high-
fast of at least 10 hours, subjects should eat a high-fat meal in
20 minutes starting 30 minutes prior to administration of IM156
with 240 mL of water. No food will be eaten for at least 4 hours
after the administration of IM156. Water is allowed as desired
except for one hour before and after the administration of IM156.
Phase 1b: advanced solid tumor or lymphoma
IM156 will be administered at the RP2D and schedule determined during
Phase 1a. The population(s) and dose and schedule of IM156 will be
defined in a protocol amendment.
Methodology This study is a Phase 1 clinical study to determine the MTD and RP2D of
IM156 as a single agent and to explore its safety, tolerability, PK
characteristics, exploratory markers, and preliminary efficacy.
The Phase 1 clinical study consists of two parts, Phase 1a and Phase 1b.
The Phase 1a is conducted to determine the MTD of IM156 as a single
agent. In addition, the safety, tolerability, preliminary efficacy, PK
characteristics, and exploratory markers of IM156 are evaluated in
patients with advanced solid tumors or lymphoma who have failed in the
standard therapies. Approximately 8 cohorts are planned in Phase 1a; the
number of cohorts and the dose and schedule of IM156 to be
administered at each dose levels will be determined by Safety Committee.
The Phase 1b is conducted to confirm the safety and tolerability, to
explore the preliminary efficacy, and to evaluate the exploratory markers
at the RP2D of IM156 in patients with advanced solid tumor or lymphoma.
Pharmacokinetic Evaluation
Pharmacokinetic evaluation on IM156 will be carried out at each dose level in all the patients
enrolled in the Phase 1a and Phase 1b study. Pharmacokinetic evaluation will be performed on
Day 1 and 15 (Day 15 is only for the Phase 1a study) of the first cycle (Cycle 1), and Day 1 of the
second cycle (Cycle 2). Day 1 Cycle 2 will be Day 29. On Day 1 of Cycles 1 and 2, patients may
be hospitalized in the ward where 24-hour monitoring is possible, and blood and urine will be
collected before and after IM156 adminstration for PK evaluation. The drug concentration will be
evaluated whenever analyses of patient samples are feasible during the clinical study. In PK
evaluation, area under the concentration-time curve (AUC) over the time interval from 0
extrapolated to infinity (AUCinf), AUC up to the last measurable concentration (AUC0–last),
maximum plasma drug concentration (Cmax), minimum plasma drug concentration (Cmin), time
taken to reach the maximum concentration (Tmax), terminal phase half life (T1/2), apparent total
clearance of the drug from plasma after oral administration (CL/F), accumulation ratio at steady
state, cumurative amount of unchanged drug excreted into the urine (Ae), renal clearance (CLr),
and so on will be determined and other PK parameters can be added, if necessary.

[3] = Day 27, cohort 1, 100 mg QOD, n<3
[4] = Day 27, cohort 7, 1200 mg QD, n<3
[5] = plasma, Cycle 1 Day 1, 100 mg oral, N = 3
[6] = plasma, Cycle 1 Day 1, 200 mg oral, N = 3
[7] = plasma, Cycle 1 Day 1, 400 mg oral, N = 3
[8] = plasma, Cycle 1 Day 1, 800 mg oral (both regimens combined), N = 6
[9] = plasma, Cycle 1 Day 1, 1200 mg oral (both regimens combined), N = 7
[10] = plasma, Day 27, cohort 1, 100 mg QOD, N = 2
[11] = plasma, Day 27, cohort 2, 200 mg QOD, N = 3
[12] = plasma, Day 27, cohort 3, 400 mg QOD, N = 3
[13] = plasma, Day 27, cohort 4, 800 mg QOD, N = 3
[14] = plasma, Day 27, cohort 5, 1200 mg QOD, N = 3
[15] = plasma, Day 27, cohort 6, 800 mg QD, N = 3
[16] = plasma, Day 27, cohort 7, 1200 mg QD, N = 2
[17] = plasma, Fed 1 (single dose with high-fat meal), 1200 mg oral, N = 3

Compound: NC(=Nc1ccc(OC(F)(F)F)cc1)N=C(N)N1CCCC1 [IM156]
- genotoxicity in in vivo micronucleus test (rodent bone marrow): not genotoxic
- IM156 excreted in the urine ([1]; Day 1, 200—1200 mg QOD, approximately): 8–10%
- % Dose Recovered ([1]; Day 1, cohort 1, 100 mg QOD): 1.79 ± 0.620%
- CLr ([1]; Day 1, cohort 1, 100 mg QOD): 6.16 ± 5.25 L/h
- Total Amount Excreted (Ae) ([1]; Day 1, cohort 1, 100 mg QOD): 1790 ± 620 µg
- % Dose Recovered ([1]; Day 1, cohort 2, 200 mg QOD): 10.0 ± 1.57%
- CLr ([1]; Day 1, cohort 2, 200 mg QOD): 6.69 ± 0.709 L/h
- Total Amount Excreted (Ae) ([1]; Day 1, cohort 2, 200 mg QOD): 20000 ± 3150 µg
- % Dose Recovered ([1]; Day 1, cohort 3, 400 mg QOD): 7.90 ± 2.90%
- CLr ([1]; Day 1, cohort 3, 400 mg QOD): 9.41 ± 6.80 L/h
- Total Amount Excreted (Ae) ([1]; Day 1, cohort 3, 400 mg QOD): 31600 ± 11600 µg
- % Dose Recovered ([1]; Day 1, cohort 4, 800 mg QOD): 7.86 ± 4.25%
- CLr ([1]; Day 1, cohort 4, 800 mg QOD): 10.4 ± 6.93 L/h
- Total Amount Excreted (Ae) ([1]; Day 1, cohort 4, 800 mg QOD): 62900 ± 34000 µg
- % Dose Recovered ([1]; Day 1, cohort 5, 1200 mg QOD): 9.11 ± 12.9%
- CLr ([1]; Day 1, cohort 5, 1200 mg QOD): 7.89 ± 9.01 L/h
- Total Amount Excreted (Ae) ([1]; Day 1, cohort 5, 1200 mg QOD): 109000 ± 155000 µg
- % Dose Recovered ([1]; Day 1, cohort 6, 800 mg QD): 7.96 ± 5.94%
- CLr ([1]; Day 1, cohort 6, 800 mg QD): 7.92 ± 2.62 L/h
- Total Amount Excreted (Ae) ([1]; Day 1, cohort 6, 800 mg QD): 63700 ± 47500 µg
- % Dose Recovered ([1]; Day 1, cohort 7, 1200 mg QD): 8.79 ± 2.05%
- CLr ([1]; Day 1, cohort 7, 1200 mg QD): 7.60 ± 4.02 L/h
- Total Amount Excreted (Ae) ([1]; Day 1, cohort 7, 1200 mg QD): 105000 ± 24600 µg
- % Dose Recovered [1, 3]: 4.32%
- CLr [1, 3]: 4.46 L/h
- Total Amount Excreted (Ae) [1, 3]: 4320 µg
- % Dose Recovered ([1]; Day 27, cohort 2, 200 mg QOD): 13.9 ± 2.34%
- CLr ([1]; Day 27, cohort 2, 200 mg QOD): 6.83 ± 1.58 L/h
- Total Amount Excreted (Ae) ([1]; Day 27, cohort 2, 200 mg QOD): 27700 ± 4680 µg
- % Dose Recovered ([1]; Day 27, cohort 3, 400 mg QOD): 16.2 ± 11.4%
- CLr ([1]; Day 27, cohort 3, 400 mg QOD): 8.68 ± 1.52 L/h
- Total Amount Excreted (Ae) ([1]; Day 27, cohort 3, 400 mg QOD): 64700 ± 45600 µg
- % Dose Recovered ([1]; Day 27, cohort 4, 800 mg QOD): 16.2 ± 9.80%
- CLr ([1]; Day 27, cohort 4, 800 mg QOD): 11.2 ± 6.94 L/h
- Total Amount Excreted (Ae) ([1]; Day 27, cohort 4, 800 mg QOD): 129000 ± 78400 µg
- % Dose Recovered ([1]; Day 27, cohort 5, 1200 mg QOD): 18.7 ± 10.6%
- CLr ([1]; Day 27, cohort 5, 1200 mg QOD): 10.9 ± 7.79 L/h
- Total Amount Excreted (Ae) ([1]; Day 27, cohort 5, 1200 mg QOD): 225000 ± 128000 µg
- % Dose Recovered ([1]; Day 27, cohort 6, 800 mg QD): 34.8 ± 6.56%
- CLr ([1]; Day 27, cohort 6, 800 mg QD): 8.72 ± 3.01 L/h
- Total Amount Excreted (Ae) ([1]; Day 27, cohort 6, 800 mg QD): 279000 ± 52500 µg
- % Dose Recovered [1, 4]: 21.0%
- CLr [1, 4]: 7.16 L/h
- Total Amount Excreted (Ae) [1, 4]: 252000 µg
- % Dose Recovered ([1]; Fed 1, cohort 7, 1200 mg): 5.42 ± 3.51%
- CLr ([1]; Fed 1, cohort 7, 1200 mg): 5.16 ± 3.51 L/h
- Total Amount Excreted (Ae) ([1]; Fed 1, cohort 7, 1200 mg): 65100 ± 42100 µg
- inhibition of OXPHOS in whole blood ex vivo (OXPHOS): very little inhibition
- neurosphere size (Glioblastoma cells): decreased
- accumulation of plasma exposure at steady-state ([2]; 800 mg QD, Day 27 vs Day 1): modest accumulation
- maximum plasma exposure achieved ([2]; daily doses of 800 mg): ~ 6 μM
- dose proportionality of plasma exposure (AUC0-24, Cmax) ([2]; doses ≥ 200 mg): increased dose proportionally; also recorded: increased in a dose proportional manner; also recorded: dose proportionality
- AUC0-24 [2, 5]: 482 ± 342 ng·h/mL
- Cmax [2, 5]: 38.7 ± 31.1 ng/mL
- Tmax [2, 5]: 6.67 ± 2.31 h
- AUC0-24 [2, 6]: 2980 ± 251 ng·h/mL
- Cmax [2, 6]: 189 ± 41.0 ng/mL
- Tmax [2, 6]: 4.67 ± 3.06 h
- AUC0-24 [2, 7]: 4380 ± 3010 ng·h/mL
- Cmax [2, 7]: 362 ± 131 ng/mL
- Tmax [2, 7]: 3.33 ± 1.15 h
- AUC0-24 [2, 8]: 7520 ± 3820 ng·h/mL
- Cmax [2, 8]: 829 ± 260 ng/mL
- Tmax [2, 8]: 2.25 ± 1.47 h
- AUC0-24 [2, 9]: 14,100 ± 6970 h*ng/mL
- Cmax [2, 9]: 1100 ± 616 ng/mL
- Tmax [2, 9]: 5.00 ± 3.00 h
- Plasma AUC0-24 ([2]; plasma, Day 1, cohort 4 only, 800 mg QOD): 7250 ± 3960 ng·h/mL
- Plasma AUC0-24 ([2]; plasma, Day 1, cohort 5 only, 1200 mg QOD): 10600 ± 4820 ng·h/mL
- Plasma AUC0-24 ([2]; plasma, Day 1, cohort 6 only, 800 mg QD): 7790 ± 4530 ng·h/mL
- Plasma AUC0-24 ([2]; plasma, Day 1, cohort 7 only, 1200 mg QD): 16800 ± 7720 ng·h/mL
- mean Tmax values, range over doses ([2]; plasma, Day 27): 1.2 to 4.0 h
- AUC0-24 [2, 10]: 1070 ± 330 ng·h/mL
- AUC0-48 [2, 10]: 1400 ± 383 ng·h/mL
- AUCINF [2, 10]: 1620 ± 473 ng·h/mL
- CL/F [2, 10]: 64.5 ± 18.8 L/h
- Cmax [2, 10]: 109 ± 54.8 ng/mL
- Tmax [2, 10]: 2.50 ± 2.12 h
- Vz/F [2, 10]: 1580 ± 291 L
- t1/2 [2, 10]: 17.3 ± 1.91 h
- AUC0-24 [2, 11]: 4200 ± 1140 ng·h/mL
- AUC0-48 [2, 11]: 6010 ± 1810 ng·h/mL
- AUCINF [2, 11]: 6180 ± 2220 ng·h/mL
- CL/F [2, 11]: 34.6 ± 12.4 L/h
- Cmax [2, 11]: 272 ± 43.8 ng/mL
- Tmax [2, 11]: 4.00 ± 0.00 h
- Vz/F [2, 11]: 837 ± 266 L
- t1/2 [2, 11]: 16.9 ± 0.752 h
- AUC0-24 [2, 12]: 7630 ± 5410 ng·h/mL
- AUC0-48 [2, 12]: 10,900 ± 8770 h*ng/mL
- CL/F [2, 12]: 67.8 ± 28.3 L/h
- Cmax [2, 12]: 530 ± 324 ng/mL
- Tmax [2, 12]: 4.00 ± 0.00 h
- Vz/F [2, 12]: 1160 ± 256 L
- t1/2 [2, 12]: 12.4 ± 2.56 h
- AUC0-24 [2, 13]: 12,900 ± 9470 h*ng/mL
- AUC0-48 [2, 13]: 18,200 ± 14,700 h*ng/mL
- AUCINF [2, 13]: 11,200 ± 5740 h*ng/mL
- CL/F [2, 13]: 82.4 ± 42.3 L/h
- Cmax [2, 13]: 949 ± 408 ng/mL
- Tmax [2, 13]: 1.17 ± 0.764 h
- Vz/F [2, 13]: 1650 ± 413 L
- t1/2 [2, 13]: 14.9 ± 4.20 h
- AUC0-24 [2, 14]: 21,800 ± 3680 h*ng/mL
- AUC0-48 [2, 14]: 29,800 ± 4700 h*ng/mL
- AUCINF [2, 14]: 33,100 ± 6120 h*ng/mL
- CL/F [2, 14]: 36.9 ± 6.83 L/h
- Cmax [2, 14]: 1580 ± 75.3 ng/mL
- Tmax [2, 14]: 3.33 ± 1.15 h
- Vz/F [2, 14]: 863 ± 312 L
- t1/2 [2, 14]: 15.9 ± 2.90 h
- AUC0-24 [2, 15]: 33,600 ± 9780 h*ng/mL
- Cmax [2, 15]: 1870 ± 485 ng/mL
- Tmax [2, 15]: 4.00 ± 0.00 h
- AUC0-24 [2, 16]: 36,300 ± 7550 h*ng/mL
- Cmax [2, 16]: 1980 ± 94.8 ng/mL
- Tmax [2, 16]: 4.00 ± 0.00 h
- AUC0-24 [2, 17]: 17,600 ± 12,800 h*ng/mL
- Cmax [2, 17]: 1220 ± 910 ng/mL
- Tmax [2, 17]: 6.83 ± 5.84 h
- mean plasma half-life (t1/2) values, range ([2]; plasma, post dose administration): 12—17 h

Source: article PMC9395488, “First-in-human study of IM156, a novel potent biguanide oxidative phosphorylation (OXPHOS) inhibitor, in patients with advanced solid tumors” (Investigational New Drugs, 2022)
